# Where “and” joins values, the source holds several entries; their conditions need not be identical. Equal entries are not always repeated.
# Molecular target: MAPK14 (human) (UniProt Q16539)
# Assay: Inhibition of MAPK14 Kinase Activity
# Sequence of MAPK14 (human) (Q16539 whole entry, looked up): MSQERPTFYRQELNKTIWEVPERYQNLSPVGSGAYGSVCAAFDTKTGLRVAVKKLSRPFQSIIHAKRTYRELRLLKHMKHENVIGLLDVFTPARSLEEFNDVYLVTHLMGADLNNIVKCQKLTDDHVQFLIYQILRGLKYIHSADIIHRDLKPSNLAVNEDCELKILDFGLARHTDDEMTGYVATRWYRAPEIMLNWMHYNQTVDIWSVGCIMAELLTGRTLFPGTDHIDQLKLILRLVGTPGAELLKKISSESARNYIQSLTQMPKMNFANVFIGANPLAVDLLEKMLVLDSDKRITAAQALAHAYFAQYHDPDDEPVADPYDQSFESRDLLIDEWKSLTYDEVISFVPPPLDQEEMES
row,SMILES,IC50
1,Cc1cc(-c2n[nH]c(C3CCN(C(=O)CO)CC3)c2-c2ccncn2)ccc1F,155 nM
2,O=C(CO)N1CCC(c2[nH]nc(-c3ccc(Cl)c(F)c3)c2-c2ccncn2)CC1,455 nM
3,C[C@@H](N[C@H]1CC[C@H](c2[nH]nc(-c3ccc(Cl)cc3)c2-c2ccncn2)CC1)c1ccccc1,8.56 nM
4,Cc1cc(F)ccc1-c1n[nH]c(C2CCN(C(=O)CO)CC2)c1-c1ccncn1,2680 nM
5,CN(C)CCNc1nccc(-c2c(-c3ccc(F)c(C(F)(F)F)c3)n[nH]c2C2CCNCC2)n1,111 nM
6,C[C@H](N[C@H]1CC[C@@H](c2[nH]nc(-c3ccc(Cl)cc3)c2-c2ccncn2)CC1)c1ccc(F)cc1,130 nM and 61 nM
7,O=C(CO)N1CCC(c2[nH]nc(-c3ccc(F)c(C(F)(F)F)c3)c2-c2ccncn2)CC1,339 nM
8,CC(C)(C)OC(=O)N1CCC(c2[nH]nc(-c3ccc(Cl)cc3F)c2-c2ccnc(NC3CCCC3)n2)CC1,10 nM
9,Fc1ccc(CN2CCC(c3[nH]nc(-c4ccc(Cl)cc4)c3-c3ccncn3)CC2)cc1,9.27 nM
10,O=C(CO)N1CCC(c2[nH]nc(-c3ccc(Cl)cc3)c2-c2ccnc(NC3CCCC3)n2)CC1,10 nM
11,CN(C)CCNc1nccc(-c2c(-c3ccc(Cl)cc3)n[nH]c2C2CCN(C(=O)CO)CC2)n1,859 nM
12,CC(=O)O[C@@H](C(=O)N1CCC(c2[nH]nc(-c3ccc(Cl)cc3)c2-c2ccncn2)CC1)c1ccccc1,572 nM
13,C[C@H](N[C@H]1CC[C@@H](c2[nH]nc(-c3ccc(Cl)cc3)c2-c2ccncn2)CC1)c1ccccc1,112 nM and 44.9 nM
14,O=C(C1CCCO1)N1CCC(c2[nH]nc(-c3ccc(Cl)cc3)c2-c2ccncn2)CC1 (centres undefined),120 nM
15,CC(C)(C)OC(=O)N1CCC(c2[nH]nc(-c3ccc(Cl)cc3)c2-c2ccnc(O[C@H]3CCOC3)n2)CC1,1680 nM
16,Clc1ccc(-c2n[nH]c([C@H]3CC[C@@H](NC4CCCCC4)CC3)c2-c2ccncn2)cc1,235 nM
17,COc1ccc(-c2n[nH]c(C3CCN(C(=O)CO)CC3)c2-c2ccncn2)cc1OC,> 100000 nM
18,C[C@@H](N[C@H]1CC[C@H](c2[nH]nc(-c3ccc(Cl)cc3)c2-c2ccncn2)CC1)c1ccc(F)cc1,5.76 nM
19,CN(C)CCNc1nccc(-c2c(-c3ccc(Cl)cc3F)n[nH]c2C2CCN(C)CC2)n1,1000 nM

# From the Kinase Knowledgebase extract (Sharma et al. 2016)
